From ChEMBL document CHEMBL4725377, “The neuronal calcium ion channel activity of constrained analogues of MONIRO-1” (Bioorg Med Chem, 2020)

Experiments:
[1] = target: T1, Voltage-dependent N-type calcium channel subunit alpha-1B (Homo sapiens, UniProt Q00975); assay: Inhibition of human N type calcium channel Cav2.2 endogenously expressed in SH-SY5Y cells assessed as calcium influx by FRIPR assay; format: cell-based
[2] = target: Voltage-dependent T-type calcium channel subunit alpha-1H (Homo sapiens, UniProt O95180); assay: Inhibition of human T type calcium channel Cav3.2 expressed in HEK-293T cells assessed as calcium influx by FRIPR assay; format: cell-based
[3] = target: T1, Voltage-dependent N-type calcium channel subunit alpha-1B; assay: Inhibition of human Cav2.2 expressed in HEK293 cells by whole cell patch clamp electrophysiology method; format: cell-based
[4] = Inhibition of human Cav3 expressed in HEK293 cells by whole cell patch clamp electrophysiology method; format: cell-based
[5] = Stability of the compound in Sprague-Dawley rat plasma assessed as half-life measured by RP-HPLC; format: ADME, cell-free

Voltage-dependent T-type calcium channel subunit alpha-1H, sequence (O95180 whole entry): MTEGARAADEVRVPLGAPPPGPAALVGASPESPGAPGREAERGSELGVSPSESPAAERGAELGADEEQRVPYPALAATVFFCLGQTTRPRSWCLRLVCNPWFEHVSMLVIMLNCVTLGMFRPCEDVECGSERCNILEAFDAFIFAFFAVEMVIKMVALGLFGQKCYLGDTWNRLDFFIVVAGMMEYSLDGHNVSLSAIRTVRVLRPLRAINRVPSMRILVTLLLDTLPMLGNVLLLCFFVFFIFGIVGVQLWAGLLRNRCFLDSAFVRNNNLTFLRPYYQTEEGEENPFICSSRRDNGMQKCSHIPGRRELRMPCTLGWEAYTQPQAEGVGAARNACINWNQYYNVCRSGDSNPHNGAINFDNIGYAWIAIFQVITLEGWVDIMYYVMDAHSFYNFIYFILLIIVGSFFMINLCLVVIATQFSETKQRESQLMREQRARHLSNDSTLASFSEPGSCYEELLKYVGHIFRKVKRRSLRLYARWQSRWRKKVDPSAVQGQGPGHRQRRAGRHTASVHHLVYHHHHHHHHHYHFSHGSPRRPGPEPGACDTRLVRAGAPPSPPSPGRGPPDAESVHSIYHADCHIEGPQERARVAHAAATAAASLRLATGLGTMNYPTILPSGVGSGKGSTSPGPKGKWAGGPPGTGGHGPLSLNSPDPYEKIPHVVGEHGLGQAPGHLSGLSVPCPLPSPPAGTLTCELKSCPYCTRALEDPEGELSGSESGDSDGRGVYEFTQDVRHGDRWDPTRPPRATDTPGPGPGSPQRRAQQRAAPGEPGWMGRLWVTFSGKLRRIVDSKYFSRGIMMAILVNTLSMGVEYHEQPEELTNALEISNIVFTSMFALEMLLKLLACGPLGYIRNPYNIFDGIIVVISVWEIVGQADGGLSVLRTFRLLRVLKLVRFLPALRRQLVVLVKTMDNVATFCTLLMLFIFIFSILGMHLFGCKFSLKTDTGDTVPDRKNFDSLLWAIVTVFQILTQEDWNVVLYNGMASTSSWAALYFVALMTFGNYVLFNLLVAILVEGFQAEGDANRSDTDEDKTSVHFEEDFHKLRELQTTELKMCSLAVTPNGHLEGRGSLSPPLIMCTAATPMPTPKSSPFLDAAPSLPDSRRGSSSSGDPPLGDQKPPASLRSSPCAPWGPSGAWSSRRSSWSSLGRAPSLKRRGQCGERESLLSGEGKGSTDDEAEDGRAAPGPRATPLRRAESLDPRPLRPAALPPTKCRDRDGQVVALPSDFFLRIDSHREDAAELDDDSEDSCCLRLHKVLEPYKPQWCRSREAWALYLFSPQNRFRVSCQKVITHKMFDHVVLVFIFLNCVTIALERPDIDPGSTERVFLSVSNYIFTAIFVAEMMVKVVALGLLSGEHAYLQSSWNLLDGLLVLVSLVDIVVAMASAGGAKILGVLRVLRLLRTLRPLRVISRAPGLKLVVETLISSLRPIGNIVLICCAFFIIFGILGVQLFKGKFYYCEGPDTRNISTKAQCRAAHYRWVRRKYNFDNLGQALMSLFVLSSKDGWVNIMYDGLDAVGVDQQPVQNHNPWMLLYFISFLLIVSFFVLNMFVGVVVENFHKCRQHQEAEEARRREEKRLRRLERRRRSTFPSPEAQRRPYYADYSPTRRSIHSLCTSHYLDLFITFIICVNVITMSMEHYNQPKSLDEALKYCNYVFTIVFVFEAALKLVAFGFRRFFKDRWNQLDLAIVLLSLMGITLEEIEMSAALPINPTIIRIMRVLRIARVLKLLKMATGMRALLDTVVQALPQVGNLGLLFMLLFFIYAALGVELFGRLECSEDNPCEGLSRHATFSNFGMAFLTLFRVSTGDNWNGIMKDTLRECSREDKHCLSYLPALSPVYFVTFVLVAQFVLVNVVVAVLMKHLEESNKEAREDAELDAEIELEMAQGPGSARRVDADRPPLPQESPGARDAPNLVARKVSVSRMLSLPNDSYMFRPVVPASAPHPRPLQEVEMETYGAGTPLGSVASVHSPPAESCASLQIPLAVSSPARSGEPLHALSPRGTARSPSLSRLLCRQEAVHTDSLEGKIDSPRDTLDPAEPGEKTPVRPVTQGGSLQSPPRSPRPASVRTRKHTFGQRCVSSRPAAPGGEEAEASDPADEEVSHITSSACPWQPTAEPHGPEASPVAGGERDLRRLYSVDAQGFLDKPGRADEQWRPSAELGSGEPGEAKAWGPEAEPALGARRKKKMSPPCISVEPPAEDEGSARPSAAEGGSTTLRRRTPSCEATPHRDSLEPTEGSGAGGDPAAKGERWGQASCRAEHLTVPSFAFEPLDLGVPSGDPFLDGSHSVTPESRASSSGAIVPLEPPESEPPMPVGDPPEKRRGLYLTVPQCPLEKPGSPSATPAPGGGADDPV
T1 sequence (Q00975 whole entry): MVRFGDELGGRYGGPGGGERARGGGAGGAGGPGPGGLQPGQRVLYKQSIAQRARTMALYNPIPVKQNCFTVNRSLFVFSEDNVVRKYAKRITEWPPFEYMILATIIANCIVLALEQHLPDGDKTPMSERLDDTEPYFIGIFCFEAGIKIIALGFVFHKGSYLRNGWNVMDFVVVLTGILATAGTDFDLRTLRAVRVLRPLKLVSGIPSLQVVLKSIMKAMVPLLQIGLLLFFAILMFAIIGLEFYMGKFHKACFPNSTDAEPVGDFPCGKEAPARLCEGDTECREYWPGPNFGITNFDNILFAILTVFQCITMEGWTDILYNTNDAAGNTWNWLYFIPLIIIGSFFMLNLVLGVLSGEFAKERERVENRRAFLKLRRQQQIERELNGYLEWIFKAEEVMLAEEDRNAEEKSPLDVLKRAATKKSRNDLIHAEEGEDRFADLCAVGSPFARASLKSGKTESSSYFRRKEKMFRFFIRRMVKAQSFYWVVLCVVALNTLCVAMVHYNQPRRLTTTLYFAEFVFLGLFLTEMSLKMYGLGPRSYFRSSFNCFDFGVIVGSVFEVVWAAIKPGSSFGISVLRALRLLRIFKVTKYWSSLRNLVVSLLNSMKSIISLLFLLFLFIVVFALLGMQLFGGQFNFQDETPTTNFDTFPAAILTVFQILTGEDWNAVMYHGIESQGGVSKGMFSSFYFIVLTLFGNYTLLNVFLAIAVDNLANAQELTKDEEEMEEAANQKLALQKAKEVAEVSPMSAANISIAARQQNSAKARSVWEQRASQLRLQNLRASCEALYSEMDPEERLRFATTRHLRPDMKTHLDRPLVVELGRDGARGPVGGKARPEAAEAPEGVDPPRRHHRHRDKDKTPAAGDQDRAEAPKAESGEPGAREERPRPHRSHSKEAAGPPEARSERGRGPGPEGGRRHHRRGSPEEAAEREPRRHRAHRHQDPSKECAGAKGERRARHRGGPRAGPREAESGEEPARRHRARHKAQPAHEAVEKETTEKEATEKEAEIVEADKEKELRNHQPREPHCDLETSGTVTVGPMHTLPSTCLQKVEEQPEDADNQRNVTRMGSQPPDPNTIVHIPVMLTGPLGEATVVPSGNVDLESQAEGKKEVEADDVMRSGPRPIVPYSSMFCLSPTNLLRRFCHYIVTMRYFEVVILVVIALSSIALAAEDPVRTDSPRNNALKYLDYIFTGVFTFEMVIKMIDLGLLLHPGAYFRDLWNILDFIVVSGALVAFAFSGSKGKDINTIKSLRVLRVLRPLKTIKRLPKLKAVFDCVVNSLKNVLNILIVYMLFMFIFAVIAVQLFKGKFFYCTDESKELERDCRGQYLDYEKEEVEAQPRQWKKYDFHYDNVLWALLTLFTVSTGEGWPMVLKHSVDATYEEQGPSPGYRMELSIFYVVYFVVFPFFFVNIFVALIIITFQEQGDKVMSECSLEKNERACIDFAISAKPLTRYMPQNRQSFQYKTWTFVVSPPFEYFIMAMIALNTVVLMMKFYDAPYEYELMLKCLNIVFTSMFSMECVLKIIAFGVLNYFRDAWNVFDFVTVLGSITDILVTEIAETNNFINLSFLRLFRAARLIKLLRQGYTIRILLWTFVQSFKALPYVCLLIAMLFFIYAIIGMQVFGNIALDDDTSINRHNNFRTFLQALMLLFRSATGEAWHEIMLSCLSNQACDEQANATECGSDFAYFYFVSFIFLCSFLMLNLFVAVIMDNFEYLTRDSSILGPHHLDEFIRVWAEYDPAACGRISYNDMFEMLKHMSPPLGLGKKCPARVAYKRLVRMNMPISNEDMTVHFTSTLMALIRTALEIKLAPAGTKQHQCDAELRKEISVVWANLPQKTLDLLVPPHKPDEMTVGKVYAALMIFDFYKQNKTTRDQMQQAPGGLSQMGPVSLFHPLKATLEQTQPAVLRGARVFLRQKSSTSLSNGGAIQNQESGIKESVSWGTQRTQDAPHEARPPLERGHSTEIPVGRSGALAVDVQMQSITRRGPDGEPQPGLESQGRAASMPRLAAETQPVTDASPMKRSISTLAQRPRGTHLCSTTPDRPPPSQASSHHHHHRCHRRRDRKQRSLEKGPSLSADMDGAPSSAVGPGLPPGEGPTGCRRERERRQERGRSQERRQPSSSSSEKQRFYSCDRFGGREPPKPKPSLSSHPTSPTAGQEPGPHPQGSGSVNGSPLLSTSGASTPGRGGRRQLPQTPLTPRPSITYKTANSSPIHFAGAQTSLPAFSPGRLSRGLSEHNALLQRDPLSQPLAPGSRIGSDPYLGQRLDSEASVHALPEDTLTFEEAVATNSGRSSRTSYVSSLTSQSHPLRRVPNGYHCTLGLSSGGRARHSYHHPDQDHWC

**Q.** What does the source list for `O=C(c1ccc(OCCCN2CCCC2)cc1)N1c2ccccc2C=Cc2ccccc21`?
**A.** IC50 [1]: 107 µM; IC50 [2]: 113 µM

**Q.** With `O=C(c1ccc(OCCCN2CCOCC2)cc1)N1c2ccccc2C=Cc2ccccc21` as the compound, how does the IC50 [1] read?
**A.** Its IC50 is 259 µM.

**Q.** What about the IC50 [2] of the same compound?
**A.** The IC50 was 193 µM.

**Q.** With `O=C(c1ccc(OCCCN2CCOCC2)cc1)N1c2ccccc2CCc2ccccc21` as the compound, how does the IC50 [1] read?
**A.** The IC50 was 78 µM.

**Q.** What about the IC50 [2] of the same compound?
**A.** The IC50 was 80 µM.

**Q.** Which IC50 [1] does the source give for `COCCOC(=O)C1=C(C)NC(C)=C(C(=O)OC/C=C/c2ccccc2)C1c1cccc([N+](=O)[O-])c1` (configuration not stated) [CILNIDIPINE] here?
**A.** The IC50 was 26 µM.

**Q.** What about the IC50 [2] of the same compound?
**A.** Its IC50 is 24 µM.

**Q.** With `O=C(c1ccc(OCCCN2CCOCC2)cc1)N1c2ccccc2Oc2ccccc21` as the compound, how does the IC50 [2] read?
**A.** The IC50 was 133 µM.

**Q.** For `NC(N)=NCCCOc1ccc(C(=O)N2c3ccccc3Oc3ccccc32)cc1`, which IC50 [2] is on record?
**A.** Its IC50 is 164 µM.

**Q.** Which IC50 [1] does the source give for `NC(N)=NCCCOc1ccc(C(=O)Nc2ccccc2Oc2ccc(F)cc2)cc1` here?
**A.** Its IC50 is 185 µM.

**Q.** And the IC50 [3]?
**A.** Its IC50 is 34 µM.

**Q.** What about the IC50 [4] of the same compound?
**A.** Its IC50 is 2 µM.

**Q.** Which results are given for `CN(C)CCCOc1ccc(C(=O)Nc2ccccc2Oc2ccccc2)cc1`?
**A.** IC50 [1]: 49 µM; IC50 [2]: 19 µM

**Q.** With `CN(C)CCCOc1ccc(C(=O)N2c3ccccc3CCc3ccccc32)cc1` as the compound, how does the half-life [5] read?
**A.** Its half-life is > 60 h.

**Q.** With `CN(C)CCCOc1ccc(C(=O)N2c3ccccc3C=Cc3ccccc32)cc1` as the compound, how does the half-life [5] read?
**A.** The half-life was > 60 h.

**Q.** What does the source list for `O=C(c1ccc(OCCCN2CCCC2)cc1)N1c2ccccc2CCc2ccccc21`?
**A.** IC50 [1]: 98 µM; IC50 [2]: 110 µM

**Q.** Which IC50 [1] does the source give for `Cc1cccc(C)c1Oc1ccccc1NC(=O)c1ccc(OCCCN(C)C)cc1` here?
**A.** Its IC50 is 62 µM.

**Q.** What about the IC50 [2] of the same compound?
**A.** Its IC50 is 55 µM.

**Q.** For `O=C(c1ccc(OCCCN2CCCC2)cc1)N1c2ccccc2Oc2ccccc21`, which IC50 [2] is on record?
**A.** Its IC50 is 49 µM.
